Test results: PubChem BioAssay AID1963851 (Molecular Pharmacology Branch, DTP, NCI, 2024)
“And” between values parts separate entries of the source, which are not always exact repeats. Equal values may be shown once.

Tested on: 188146-221-R-J1-PDC complex spheroid viability
Assay: Anticancer human tumor 188146-221-R-J1-PDC patient-derived colon adenocarcinoma cell line growth inhibition [POLQ]
Conditions: for viability, T/C: stronger effect = lower value
Description: Multicellular complex tumor spheroid response to Polymerase (POL) inhibitors (novobiocin, ART-558, RP6685) in combination with a variety of drugs and investigational agents in selected tumor cell lines
The POL inhibitors (novobiocin, ART-558, and RP6685) were evaluated both individually and in combination with standard of care and investigational anticancer small molecules within a complex spheroid model of solid tumors. . Complex spheroids include a stromal component modeled by human endothelial cells (HUVEC) and fibroblasts modeled by human mesenchymal stem cells (MSCs). The concentration ranges selected for each drug and investigational agent were based upon clinically achievable concentrations if the clinical Cmax of the agent was known.
Compounds. The drugs and investigational agents: novobiocin (NSC847541), ART-558 (NSC835418), RP-6685 (NSC848927), peposertib (NSC802822), ceralasertib (NSC780249), elimusertib (NSC800525), camonsertib (NSC841442), AZD-1390 (NSC803789), olaparib (NSC753686), talazoparib (NSC767125), rucaparib (NSC756644), sotorasib (NSC818433), MRTX-1133 (NSC836407), SN-38 (NSC673596), topotecan (NSC609699), epotoside (NSC141540), doxorubicin (NSC123127), gemcitabine (NSC613327), 5-fluorouracil (NSC19893), paclitaxel (NSC125973), vemurafenib (NSC761431), MSA-2 (NSC828583), SN-011 (NSC837082), adavosertib (NSC754352), prexasertib (NSC758257), carboplatin (NSC241240) and oxaliplatin (NSC266046), were obtained from the National Cancer Institute (NCI) Developmental Therapeutics Program Chemical Repository (21). The FDA-approved anticancer drug set is available from the Developmental Therapeutics Program at https://dtp.cancer.gov/organization/dscb/obtaining/. […] The stock solutions were prepared in dimethyl sulfoxide (DMSO, Sigma-Aldrich, St. Louis, MO, cat. D2650), except for the platinum compounds which were prepared in saline (Quality Biological, Gaithersburg, MD, cat. 114-055-101), at 800-fold the tested concentration and stored at -70 degrees C prior to their use. All drugs and investigational agents were tested over a range starting from a high concentration at or near the clinical Cmax and decreasing in half-log increments. If the clinical Cmax for an agent had not been determined, the highest concentration tested was 10 microM, except for SN-38, which was tested at a high concentration of 1 microM.
Cell Culture. All cells were maintained in an incubator at 37 degrees C and 5% CO2 with 95% humidity. The PDC lines were cultured according to standard operating procedures established by the NCI PDMR (https://pdmr.cancer.gov). Table 3 of the manuscript, lists the cell lines along with the number of the three cell types plated to form the mct-spheroids and media for tumor cell growth. After thawing, all PDC lines, except 997537-175-T-J1-PDC and 415267-285-R-J2-PDC, were cultured in Matrigel-coated flasks prepared with a working solution of 1X Ham's F-12 nutrient mix, without supplementation (Thermo Fisher Scientific, cat. 11765054), 100 U/mL penicillin-streptomycin (Thermo Fisher Scientific, cat. 15140122), and 2.5% Matrigel (Corning Inc., Corning, NY, cat. 354248) for the first three passages. The two PDC lines 997537-175-T-J1-PDC and 415267-285-R-J2-PDC were cultured on uncoated flasks. The 857933-349-R-J2-PDC line was cultured in 6C/Colon 1B media containing advanced DMEM/F-12 (Thermo Fisher Scientific, cat. 12634028), 10 mM HEPES (Thermo Fisher Scientific, cat. 15630080), 1X GlutaMAX supplement (Thermo Fisher Scientific, cat. 35050061), 0.1 mg/mL primocin (InvivoGen, San Diego, CA, cat. ant-pm-2), 10% defined fetal bovine serum, heat inactivated (HyClone Laboratories Inc., Logan, UT, cat. SH30070.03HI), 50% L-WRN conditioned media (ATCC, cat. CRL-3276), 1.25 mM N-Acetyl-L-cysteine (Sigma-Aldrich, cat. A9165), 10 mM nicotinamide (Sigma-Aldrich, cat. N0636), 1X B-27 supplement (Thermo Fisher Scientific, cat. 17504044), 1X N-2 supplement (Thermo Fisher Scientific, cat. […]
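Also: spheroids exposed to compounds for seven days.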
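For viability, T/C in this document: 100% = DMSO vehicle control viability.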

Question: Which results are given for COc1cc2cc(C(=O)CCC(=O)O)sc2cc1OC + COC1C(OC(N)=O)C(O)C(Oc2ccc3c(O)c(NC(=O)c4ccc(O)c(CC=C(C)C)c4)c(=O)oc3c2C)OC1(C)C?
Answer: IC50 (curve of first compound, second compound 0.0316 µM): > 10 µM; IC50 (curve of first compound, second compound 0.1 µM): > 10 µM; IC50 (curve of first compound, second compound 0.316 µM): > 10 µM; IC50 (curve of first compound, second compound 1 µM): > 10 µM; IC50 (curve of first compound, second compound 3.16 µM): > 10 µM; IC50 (curve of first compound, second compound 10 µM): > 10 µM; viability, T/C (second compound 0.0316 µM, first compound 0.0316 µM): 108%; viability, T/C (second compound 0.0316 µM, first compound 0.1 µM): 107%; viability, T/C (second compound 0.0316 µM, first compound 0.316 µM): 107%; viability, T/C (second compound 0.0316 µM, first compound 1 µM): 111%; viability, T/C (second compound 0.0316 µM, first compound 3.16 µM): 107%; viability, T/C (second compound 0.0316 µM, first compound 10 µM): 98%; viability, T/C (second compound 0.1 µM, first compound 0.0316 µM): 105%; viability, T/C (second compound 0.1 µM, first compound 0.1 µM): 98.3%; viability, T/C (second compound 0.1 µM, first compound 0.316 µM): 99.9%; viability, T/C (second compound 0.1 µM, first compound 1 µM): 99.8%; viability, T/C (second compound 0.1 µM, first compound 3.16 µM): 92.9%; viability, T/C (second compound 0.1 µM, first compound 10 µM): 98.3%; viability, T/C (second compound 0.316 µM, first compound 0.0316 µM): 103%; viability, T/C (second compound 0.316 µM, first compound 0.1 µM): 107%; viability, T/C (second compound 0.316 µM, first compound 0.316 µM): 99.7%; viability, T/C (second compound 0.316 µM, first compound 1 µM): 94.9%; viability, T/C (second compound 0.316 µM, first compound 3.16 µM): 95.6%; viability, T/C (second compound 0.316 µM, first compound 10 µM): 93%; viability, T/C (second compound 1 µM, first compound 0.0316 µM): 101%; viability, T/C (second compound 1 µM, first compound 0.1 µM): 96.8%; viability, T/C (second compound 1 µM, first compound 0.316 µM): 83.6%; viability, T/C (second compound 1 µM, first compound 1 µM): 100%; viability, T/C (second compound 1 µM, first compound 3.16 µM): 101%; viability, T/C (second compound 1 µM, first compound 10 µM): 101%; viability, T/C (second compound 3.16 µM, first compound 0.0316 µM): 102%; viability, T/C (second compound 3.16 µM, first compound 0.1 µM): 94.1%; viability, T/C (second compound 3.16 µM, first compound 0.316 µM): 95.7%; viability, T/C (second compound 3.16 µM, first compound 1 µM): 84.3%; viability, T/C (second compound 3.16 µM, first compound 3.16 µM): 114%; viability, T/C (second compound 3.16 µM, first compound 10 µM): 108%; viability, T/C (second compound 10 µM, first compound 0.0316 µM): 105%; viability, T/C (second compound 10 µM, first compound 0.1 µM): 92%; viability, T/C (second compound 10 µM, first compound 0.316 µM): 108%; viability, T/C (second compound 10 µM, first compound 1 µM): 101%; viability, T/C (second compound 10 µM, first compound 3.16 µM): 111%; viability, T/C (second compound 10 µM, first compound 10 µM): 109%

Question: Which results are given for COC1C(OC(N)=O)C(O)C(Oc2ccc3c(O)c(NC(=O)c4ccc(O)c(CC=C(C)C)c4)c(=O)oc3c2C)OC1(C)C (configuration not stated)?
Answer: viability, T/C (compound 0.0316 µM): 103% [middle of 12 runs]; viability, T/C (compound 0.316 µM): 102% [middle of 13 runs]; viability, T/C (compound 1 µM): 105% [middle of 13 runs]; viability, T/C (compound 3.16 µM): 107% [middle of 13 runs]; viability, T/C (compound 10 µM): 108% [middle of 13 runs]; IC50 (compound alone, run of 10/31/2023): > 10 µM

Question: Which viability, T/C (compound 0.0316 µM) does the source give for CCc1cc2c(N3CCc4c(cc(Cn5ccnc5)cc4-c4cn(C)nc4C(F)(F)F)C3=O)cc(C)nc2c(OC)n1 here?
Answer: 114% and 97.3% and 106%

Question: What about the viability, T/C (compound 0.1 µM) of the same compound?
Answer: 114% and 95.4% and 108%

Question: What about the viability, T/C (compound 0.316 µM) of the same compound?
Answer: 95.9% and 83.1% and 98.9%

Question: What about the viability, T/C (compound 1 µM) of the same compound?
Answer: 85.5% and 80.4% and 92.5%

Question: And the viability, T/C (compound 3.16 µM)?
Answer: 71% and 77.1% and 66.7%

Question: And the viability, T/C (compound 10 µM)?
Answer: 41.5% and 47.2% and 47.6%

Question: What about the IC50 (curve of compound) of the same compound?
Answer: 7.26 µM and 9.62 µM and 8.6 µM

Question: Which viability, T/C (compound 0.0316 µM) does the source give for O=C(c1cc(Cc2n[nH]c(=O)c3ccccc23)ccc1F)N1CCN(C(=O)C2CC2)CC1 here?
Answer: 95.8% and 103% and 101%

Question: And the viability, T/C (compound 0.1 µM)?
Answer: 105% and 101% and 97%

Question: And the viability, T/C (compound 0.316 µM)?
Answer: 89.8% and 97.6% and 92.6%

Question: And the viability, T/C (compound 1 µM)?
Answer: 90.3% and 81.9% and 108%

Question: What about the viability, T/C (compound 3.16 µM) of the same compound?
Answer: 104% and 95.4% and 97.6%

Question: What about the viability, T/C (compound 10 µM) of the same compound?
Answer: 73.3% and 74% and 74.6%

Question: And the IC50 (curve of compound)?
Answer: > 10 µM
